Organism: Rattus norvegicus
Assay: DrugMatrix - Regimen: Daily Repeat
Assay type: toxicity, organism-based, Sprague-Dawley
Set-up: regimen Daily Repeat, gender Male, age 6-8 weeks
Details: in vivo, po, route oral GAVAGE, […]; for ABSOLUTE BASOPHIL / ABSOLUTE EOSINOPHIL / ABSOLUTE LYMPHOCYTE / ABSOLUTE MONOCYTE / ABSOLUTE SEGMENTED NEUTROPHIL / BASOPHIL / EOSINOPHIL / ERYTHROCYTE COUNT / HEMATOCRIT / HEMOGLOBIN / LEUKOCYTE COUNT / LYMPHOCYTE / MEAN CORPUSCULAR HEMOGLOBIN / MEAN CORPUSCULAR HEMOGLOBIN CONCENTRATION / MEAN CORPUSCULAR VOLUME / MONOCYTE / NEUTROPHIL / NUCLEATED RED BLOOD CELLS / PLATELET COUNT: tissue Blood; for ALANINE AMINOTRANSFERASE / ALBUMIN / ALKALINE PHOSPHATASE / ASPARTATE AMINOTRANSFERASE / BLOOD UREA NITROGEN / CARBON DIOXIDE / CHLORIDE / CHOLESTEROL / CREATINE PHOSPHOKINASE / CREATININE / GLUCOSE / LACTATE DEHYDROGENASE / LIPASE / PHOSPHORUS / POTASSIUM / SODIUM / TOTAL BILIRUBIN / TOTAL PROTEIN / URIC ACID: tissue Plasma
[1] = 0 mg/kg, 72 h, dose level Control, time 3 day
[2] = 0 mg/kg, 120 h, dose level Control, time 5 day
[3] = 280 mg/kg, 72 h, dose level High, time 3 day

SMILES: CC/C(=C(/CC)c1ccc(O)cc1)c1ccc(O)cc1 [DIETHYLSTILBESTROL]
- ABSOLUTE BASOPHIL [1]: 0 CELLS/uL
- ABSOLUTE EOSINOPHIL [1]: 14 CELLS/uL
- ABSOLUTE LYMPHOCYTE [1]: 11144.67 CELLS/uL
- ABSOLUTE MONOCYTE [1]: 22.5 CELLS/uL
- ABSOLUTE SEGMENTED NEUTROPHIL [1]: 535.5 CELLS/uL
- BASOPHIL [1]: 0%
- EOSINOPHIL [1]: 0.17%
- ERYTHROCYTE COUNT [1]: 5.08 x10E6/uL
- HEMATOCRIT [1]: 32.32%
- HEMOGLOBIN [1]: 12.87 G/DL
- LEUKOCYTE COUNT [1]: 11.72 x10E3/uL
- LYMPHOCYTE [1]: 94.67%
- MEAN CORPUSCULAR HEMOGLOBIN [1]: 25.37 pg
- MEAN CORPUSCULAR HEMOGLOBIN CONCENTRATION [1]: 39.85 G/DL
- MEAN CORPUSCULAR VOLUME [1]: 63.58 fL
- MONOCYTE [1]: 0.17%
- NEUTROPHIL [1]: 5%
- NUCLEATED RED BLOOD CELLS [1]: 0 /100WBC
- PLATELET COUNT [1]: 1084 x10E3/uL
- ALANINE AMINOTRANSFERASE [1]: 67.5 u/L
- ALBUMIN [1]: 4.02 G/DL
- ALKALINE PHOSPHATASE [1]: 374.17 u/L
- ASPARTATE AMINOTRANSFERASE [1]: 83.5 u/L
- BLOOD UREA NITROGEN [1]: 14.5 mg/dL
- CARBON DIOXIDE [1]: 30 mmol/L
- CHLORIDE [1]: 100.5 MEQ/L
- CHOLESTEROL [1]: 71.33 mg/dL
- CREATINE PHOSPHOKINASE [1]: 268.33 u/L
- CREATININE [1]: 0.16 mg/dL
- GLUCOSE [1]: 170.5 mg/dL
- LACTATE DEHYDROGENASE [1]: 81.17 u/L
- LIPASE [1]: 16.67 u/L
- PHOSPHORUS [1]: 10.07 mg/dL
- POTASSIUM [1]: 5.03 MEQ/L
- SODIUM [1]: 142.92 MEQ/L
- TOTAL BILIRUBIN [1]: 0.17 mg/dL
- TOTAL PROTEIN [1]: 5.63 G/DL
- URIC ACID [1]: 0.5 mg/dL
- ABSOLUTE BASOPHIL [2]: 0 CELLS/uL
- ABSOLUTE EOSINOPHIL [2]: 37.5 CELLS/uL
- ABSOLUTE LYMPHOCYTE [2]: 8049.5 CELLS/uL
- ABSOLUTE MONOCYTE [2]: 82.83 CELLS/uL
- ABSOLUTE SEGMENTED NEUTROPHIL [2]: 646.83 CELLS/uL
- BASOPHIL [2]: 0%
- EOSINOPHIL [2]: 0.5%
- ERYTHROCYTE COUNT [2]: 5.36 x10E6/uL
- HEMATOCRIT [2]: 33.9%
- HEMOGLOBIN [2]: 13.02 G/DL
- LEUKOCYTE COUNT [2]: 8.82 x10E3/uL
- LYMPHOCYTE [2]: 90.17%
- MEAN CORPUSCULAR HEMOGLOBIN [2]: 24.32 pg
- MEAN CORPUSCULAR HEMOGLOBIN CONCENTRATION [2]: 38.42 G/DL
- MEAN CORPUSCULAR VOLUME [2]: 63.32 fL
- MONOCYTE [2]: 1.17%
- NEUTROPHIL [2]: 8.17%
- NUCLEATED RED BLOOD CELLS [2]: 0.17 /100WBC
- PLATELET COUNT [2]: 1231.5 x10E3/uL
- ALANINE AMINOTRANSFERASE [2]: 62 u/L
- ALBUMIN [2]: 3.97 G/DL
- ALKALINE PHOSPHATASE [2]: 303.67 u/L
- ASPARTATE AMINOTRANSFERASE [2]: 84.5 u/L
- BLOOD UREA NITROGEN [2]: 14.83 mg/dL
- CARBON DIOXIDE [2]: 31.83 mmol/L
- CHLORIDE [2]: 97 MEQ/L
- CHOLESTEROL [2]: 68.83 mg/dL
- CREATINE PHOSPHOKINASE [2]: 411.33 u/L
- CREATININE [2]: 0.16 mg/dL
- GLUCOSE [2]: 170.17 mg/dL
- LACTATE DEHYDROGENASE [2]: 88.5 u/L
- LIPASE [2]: 9.5 u/L
- PHOSPHORUS [2]: 9.98 mg/dL
- POTASSIUM [2]: 5.72 MEQ/L
- SODIUM [2]: 141.62 MEQ/L
- TOTAL BILIRUBIN [2]: 0.1 mg/dL
- TOTAL PROTEIN [2]: 5.67 G/DL
- URIC ACID [2]: 0.52 mg/dL
- ABSOLUTE BASOPHIL [3]: 0 CELLS/uL
- ABSOLUTE EOSINOPHIL [3]: 42 CELLS/uL
- ABSOLUTE LYMPHOCYTE [3]: 6341.67 CELLS/uL
- ABSOLUTE MONOCYTE [3]: 46.67 CELLS/uL
- ABSOLUTE SEGMENTED NEUTROPHIL [3]: 836.33 CELLS/uL
- BASOPHIL [3]: 0%
- EOSINOPHIL [3]: 0.67%
- ERYTHROCYTE COUNT [3]: 5.06 x10E6/uL
- HEMATOCRIT [3]: 31.5%
- HEMOGLOBIN [3]: 12.2 G/DL
- LEUKOCYTE COUNT [3]: 7.27 x10E3/uL
- LYMPHOCYTE [3]: 87%
- MEAN CORPUSCULAR HEMOGLOBIN [3]: 24.13 pg
- MEAN CORPUSCULAR HEMOGLOBIN CONCENTRATION [3]: 38.77 G/DL
- MEAN CORPUSCULAR VOLUME [3]: 62.27 fL
- MONOCYTE [3]: 0.67%
- NEUTROPHIL [3]: 11.67%
- NUCLEATED RED BLOOD CELLS [3]: 0 /100WBC
- PLATELET COUNT [3]: 1040.67 x10E3/uL
- ALANINE AMINOTRANSFERASE [3]: 64 u/L
- ALBUMIN [3]: 3.57 G/DL
- ALKALINE PHOSPHATASE [3]: 625.67 u/L
- ASPARTATE AMINOTRANSFERASE [3]: 73 u/L
- BLOOD UREA NITROGEN [3]: 16 mg/dL
- CARBON DIOXIDE [3]: 23 mmol/L
- CHLORIDE [3]: 107.33 MEQ/L
- CHOLESTEROL [3]: 31.33 mg/dL
- CREATINE PHOSPHOKINASE [3]: 341 u/L
- CREATININE [3]: 0.17 mg/dL
- GLUCOSE [3]: 156.67 mg/dL
- LACTATE DEHYDROGENASE [3]: 103.33 u/L
- LIPASE [3]: 8 u/L
- PHOSPHORUS [3]: 9 mg/dL
- POTASSIUM [3]: 5.01 MEQ/L
- SODIUM [3]: 147.7 MEQ/L
- TOTAL BILIRUBIN [3]: 0.27 mg/dL
- TOTAL PROTEIN [3]: 5.5 G/DL
- URIC ACID [3]: 0.53 mg/dL
